In patent publication US9394289B2, “Inhibitors of c-fms kinase” (Janssen Pharmaceutica NV, priority 2006, dated 2016):
Read-outs that look alike come from different tables or passages of the source.

Columns and labels:
c-fms = c-fms (Homo sapiens (Human), UniProt P07333); assay: Autophosphorylation fluorescence polarization competition immunoassay for c-fms inhibition; assay type: biochemical; settings: averages of three independent measurements; table head says 1 nM c-fms, method says 10 nM c-fms, 1 mM ATP; read-out: 1 nM c-fms; peptide Pi assay IC-50
Chain of c-fms (P07333 20-972): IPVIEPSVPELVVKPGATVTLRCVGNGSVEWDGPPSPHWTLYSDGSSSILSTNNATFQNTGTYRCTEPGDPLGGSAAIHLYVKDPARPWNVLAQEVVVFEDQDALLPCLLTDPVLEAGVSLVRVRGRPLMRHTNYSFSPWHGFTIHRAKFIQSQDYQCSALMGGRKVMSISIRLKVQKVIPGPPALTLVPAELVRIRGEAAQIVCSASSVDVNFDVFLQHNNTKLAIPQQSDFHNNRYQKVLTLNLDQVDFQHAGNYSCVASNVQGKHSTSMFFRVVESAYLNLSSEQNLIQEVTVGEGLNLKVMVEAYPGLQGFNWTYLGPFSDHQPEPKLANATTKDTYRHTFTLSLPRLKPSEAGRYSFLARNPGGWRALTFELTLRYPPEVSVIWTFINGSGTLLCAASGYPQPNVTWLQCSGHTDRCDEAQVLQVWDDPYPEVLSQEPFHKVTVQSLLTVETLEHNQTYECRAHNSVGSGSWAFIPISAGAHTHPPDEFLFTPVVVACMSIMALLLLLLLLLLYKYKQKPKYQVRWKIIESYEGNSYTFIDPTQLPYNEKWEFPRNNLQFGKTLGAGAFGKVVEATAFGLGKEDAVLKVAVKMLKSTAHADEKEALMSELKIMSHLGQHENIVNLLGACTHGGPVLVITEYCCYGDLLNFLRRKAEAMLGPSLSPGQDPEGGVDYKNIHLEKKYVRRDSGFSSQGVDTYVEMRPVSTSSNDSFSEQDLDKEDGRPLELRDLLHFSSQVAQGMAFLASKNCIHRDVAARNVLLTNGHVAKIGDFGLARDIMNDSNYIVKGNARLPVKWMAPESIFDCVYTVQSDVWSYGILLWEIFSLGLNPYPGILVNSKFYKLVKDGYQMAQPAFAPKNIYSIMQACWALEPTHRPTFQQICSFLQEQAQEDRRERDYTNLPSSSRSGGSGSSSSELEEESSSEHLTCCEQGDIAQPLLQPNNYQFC
Method: Fluorescence Polarization Competition Immunoassay
The assay buffer used was 100 mM 4-(2-hydroxyethyl)piperazine 1-ethanesulfonic acid (HEPES), pH 7.5, 1 mM 1,4-dithio-DL-threitol (DTT), 0.01% (v/v) Tween-20. Compounds were diluted in assay buffer containing 4% dimethylsulfoxide (DMSO) just prior to the assay. To each well, 5 μL of compound were added followed by the addition of 3 μL of a mix containing 33 nM c-fms (Johnson & Johnson PRD) and 16.7 mM MgCl2 (Sigma) in assay buffer. The kinase reaction was initiated by adding 2 μL of 5 mM ATP (Sigma) in assay buffer. […] Control reactions were ran in each plate: in positive and negative control wells, assay buffer (made 4% in DMSO) was substituted for the compound; in addition, positive control wells received 1.2 μL of 50 mM ethylenediaminetetraaceticacid (EDTA).
The plates were incubated at room temperature for 45 min. At the end of the incubation, the reaction was quenched with 1.2 μL of 50 mM EDTA (EDTA was not added to the positive control wells at this point; see above). Following a 5-min incubation, each well received 10 μL of a 1:1:3 mixture of anti-phosphotyrosine antibody, 10×, PTK green tracer, 10× (vortexed), FP dilution buffer, respectively (all from PanVera, cat. #P2837). The plate was covered, incubated for 30 min at room temperature and the fluorescence polarization was read on the Analyst. The instrument settings were: 485 nm excitation filter; 530 nm emission filter; Z height: middle of well; G factor: 0.93. […] The reported IC50 values are averages of three independent measurements.

[1] = tested on: mouse bone-marrow derived macrophages (BMDM); assay: CSF-1-driven mouse bone-marrow derived macrophages proliferation assay (BrDU incorporation); assay type: cell-based; settings: 30 hrs culture, read-out: mCSF driven proliferation BMDM (Mouse) IC-50
Method: CSF-1-Driven Mouse Bone-Marrow Derived Macrophages Assay
Macrophages are derived by culturing mouse bone marrow in alpha-MEM supplemented with 10% FCS and 50 ng/ml recombinant mouse CSF-1 in bacteriologic dishes. On the sixth day, macrophages are detached from dishes, washed, and resuspended to 0.05 million cells/ml in alpha-MEM containing 10% FCS. One hundred ul of cell suspension are distributed per well into 96 well culture plates. Wells are further supplemented with the addition of 50 ul media containing 15 ng/ml CSF-1, 3 uM Indomethacin, and 3× of a dilution series of test compounds. The cells are cultured for 30 hrs at 37 degrees and 5% CO2. During the final six hours, cultures are supplemented with an additional 30 ul of media containing a 1:500 dilution of bromodeoxyuridine (BrDU). At the end of the culture period, the plates are spun at 1000 RPM for 1 minute and 130 ul of media is removed with a pipet and replaced with 150 ul of fixative solution for 1 hour @ room temperature. The fixative is then dispelled from the plates and the plates allowed to air dry. Incorporation of BrDU into the fixed, dried cells is quantified using a specific ELISA.

| IC50 (c-fms) [nM] | SMILES | IC50 ([1]; Mus musculus, BMDM) [nM] | IC50 [1] [nM] |
| --- | --- | --- | --- |
| 0.8 | CC1(C)CC=C(c2cc(C3(C(N)=O)CCOCC3)ccc2NC(=O)c2nc(C#N)c[nH]2)CC1 [Example 24, 4-Cyano-1H-imidazole-2-carboxylic acid [4-(4-carbamoyl-tetrahydro-pyran-4-yl)-2-(4,4-dimethyl-cyclohex-1-enyl)-phenyl]-amide] | 14 | – |
| 0.49 | CC1(C)CC=C(c2cc(C3(CO)CCOCC3)ccc2NC(=O)c2nc(C#N)c[nH]2)CC1 [Example 25, 4-Cyano-1H-imidazole-2-carboxylic acid [2-(4,4-dimethyl-cyclohex-1-enyl)-4-(4-hydroxymethyl-tetrahydro-pyran-4-yl)-phenyl]-amide] | 6.5 | – |
| 3 | CC1(C)CC=C(c2cc(C3(CN4CCOCC4)CCOCC3)ccc2NC(=O)c2nc(C#N)c[nH]2)CC1 [Example 26, 4-Cyano-1H-imidazole-2-carboxylic acid [2-(4,4-dimethyl-cyclohex-1-enyl)-4-(4-morpholin-4-ylmethyl-tetrahydro-pyran-4-yl)-phenyl]-amide] | 5.3 | – |
| 2.9 | N#Cc1c[nH]c(C(=O)Nc2ccc(C3(O)CCOCC3)cc2C2=CCCCC2)n1 [Example 27, 4-Cyano-1H-imidazole-2-carboxylic acid [2-cyclohex-1-enyl-4-(4-hydroxy-tetrahydro-pyran-4-yl)-phenyl]-amide] | 4.5 | – |
| 8.4 | CN(C)C(=O)C1(c2ccc(NC(=O)c3nc(C#N)c[nH]3)c(C3=CCCCC3)c2)CCOCC1 [Example 28, 4-Cyano-1H-imidazole-2-carboxylic acid [2-cyclohex-1-enyl-4-(4dimethylcarbamoyl-tetrahydro-pyran-4-yl)-phenyl]-amide] | 28 | – |
| 1.6 | CN(C)C(=O)C1(c2ccc(NC(=O)c3nc(C#N)c[nH]3)c(C3=CCC(C)(C)CC3)c2)CCOCC1 [Example 29, 4-Cyano-1H-imidazole-2-carboxylic acid [4-(4-dimethylcarbamoyl-tetrahydro-pyran-4-yl)-2-(4,4-dimethyl-cyclohex-1-enyl)-phenyl]-amide] | 11 | – |
| 3.2 | C[C@@H]1CC(O)(c2ccc(NC(=O)c3nc(C#N)c[nH]3)c(C3=CCC(C)(C)CC3)c2)C[C@H](C)O1 (stereo partly drawn) [Example 30, 4-Cyano-1H-imidazole-2-carboxylic acid [2-(4,4-dimethyl-cyclohex-1-enyl)-4-(cis-4-hydroxy-cis-2,6-dimethyl-tetrahydro-pyran-4-yl)-phenyl]-amide] | – | 7 |
| 1.4 | C[C@@H]1CC(O)(c2ccc(NC(=O)c3nc(C#N)c[nH]3)c(C3=CCC(C)(C)CC3)c2)C[C@H](C)O1 (stereo partly drawn) [Example 31, 4-cyano-1H-imidazole-2-carboxylic acid [2-(4,4-dimethyl-cyclohex-1-enyl)-4-(trans-4-hydroxy-cis-2,6-dimethyl-tetrahydro-pyran-4-yl)-phenyl]-amide] | – | 3 |
| 3.2 | C[C@@H]1CC(O)(c2ccc(NC(=O)c3nc(C#N)c[nH]3)c(C3=CCC(C)(C)CC3)n2)C[C@H](C)O1 (stereo partly drawn) [Example 32, 4-Cyano-1H-imidazole-2-carboxylic acid [2-(4,4-dimethyl-cyclohex-1-enyl)-6-(4-hydroxy-Cis-2,6-dimethyl-tetrahydro-pyran-4-yl)-pyridin-3-yl]-amide] | 19 | – |
| 3.7 | CC1(C)CC=C(c2nc(C3(O)CCOCC3)ccc2NC(=O)c2nc(C#N)c[nH]2)CC1 [Example 33, 4-Cyano-1H-imidazole-2-carboxylic acid [2-(4,4-dimethyl-cyclohex-1-enyl)-6-(4-hydroxy-tetrahydro-pyran-4-yl)-pyridin-3-yl]-amide] | 33 | – |
| 1.5 | CS(=O)(=O)C1(c2ccc(NC(=O)c3ncc(C#N)[nH]3)c(C3=CCCCC3)c2)CCOCC1 [Example 34, 5-Cyano-1H-imidazole-2-carboxylic acid [2-cyclohex-1-enyl-4-(4-methanesulfonyl-tetrahydro-pyran-4-yl)-phenyl]-amide] | 17.2 | – |
| 0.7 | CC(=O)N1CCC(O)(c2ccc(NC(=O)c3nc(C#N)c[nH]3)c(C3=CCC(C)(C)CC3)c2)CC1 [Example 35, 4-Cyano-1H-imidazole-2-carboxylic acid [4-(1-acetyl-4-hydroxy-piperidin-4-yl)-2-(4,4-dimethyl-cyclohex-1-enyl)-phenyl]-amide] | 5.8 | – |
| 1.1 | CC1(C)CC=C(c2cc(C3(C#N)CCS(=O)(=O)CC3)ccc2NC(=O)c2nc(C#N)c[nH]2)CC1 [Example 87, 4-Cyano-1H-imidazole-2-carboxylic acid [4-(4-cyano-1,1-dioxo-hexahydro-1λ^6-thiopyran-4-yl)-2-(4,4-dimethyl-cyclohex-1-enyl)-phenyl]-amide] | 8.2 | – |
| 2.4 | CC1(C)CC=C(c2cc(C3(O)CC(C)(C)OC(C)(C)C3)ccc2NC(=O)c2nc(C#N)c[nH]2)CC1 [Example 88, 4-Cyano-1H-imidazole-2-carboxylic acid [2-(4,4-dimethyl-cyclohex-1-enyl)-4-(4-hydroxy-2,2,6,6-tetramethyl-tetrahydro-pyran-4-yl)-phenyl]-amide] | 6.4 | – |
| 13 | CON1C(C)(C)CC(O)(c2ccc(NC(=O)c3nc(C#N)c[nH]3)c(C3=CCC(C)(C)CC3)c2)CC1(C)C [Example 89, 4-Cyano-1H-imidazole-2-carboxylic acid [2-(4,4-dimethyl-cyclohex-1-enyl)-4-(4-hydroxy-1-methoxy-2,2,6,6-tetramethyl-piperidin-4-yl)-phenyl]-amide] | 20 | – |
| 2.2 | CC1(C)CC=C(c2cc(C3(O)CC4CCC(C3)O4)ccc2NC(=O)c2nc(C#N)c[nH]2)CC1 (stereo not drawn) [Example 92, 4-Cyano-1H-imidazole-2-carboxylic acid [2-(4,4-dimethyl-cyclohex-1-enyl)-4-(3-hydroxy-8-oxa-bicyclo[3.2.1]oct-3-yl)-phenyl]-amide] | 12 | – |
| 2.9 | CC1(C)CC=C(c2cc(C3(O)CC4(C)CCC(C)(C3)O4)ccc2NC(=O)c2nc(C#N)c[nH]2)CC1 (stereo not drawn) [Example 93, 4-Cyano-1H-imidazole-2-carboxylic acid [2-(4,4-dimethyl-cyclohex-1-enyl)-4-(3-hydroxy-1,5-dimethyl-8-oxa-bicyclo[3.2.1]oct-3-yl)-phenyl]-amide] | 8.9 | – |
| 82 | CC1(C)CC=C(c2cc(C3(C#N)C[C@]4(C)CC[C@](C)(C3)O4)ccc2NC(=O)c2nc(C#N)c[nH]2)CC1 (stereo partly drawn) [Example 94, 4-Cyano-1H-imidazole-2-carboxylic acid [4-(3-cyano-1,5-dimethyl-8-oxa-bicyclo[3.2.1]oct-3-yl)-2-(4,4-dimethyl-cyclohex-1-enyl)-phenyl]-amide] | > 100 | – |
| 26 | CC1(C)CC=C(c2cc(C3(C#N)CC(C)(C)OC(C)(C)C3)ccc2NC(=O)c2nc(C#N)c[nH]2)CC1 [Example 95, 4-Cyano-1H-imidazole-2-carboxylic acid [4-(4-cyano-2,2,6,6-tetramethyl-tetrahydro-pyran-4-yl)-2-(4,4-dimethyl-cyclohex-1-enyl)-phenyl]-amide] | 29 | – |

| SMILES | IC50 (c-fms) [nM] | IC50 ([1]; Mus musculus, BMDM) [nM] | IC50 [1] [nM] |
| --- | --- | --- | --- |
| CC1(C)CC=C(c2cc(C3(O)CCN(CC(F)(F)F)CC3)ccc2NC(=O)c2nc(C#N)c[nH]2)CC1 [Example 90, 4-Cyano-1H-imidazole-2-carboxylic acid {2-(4,4-dimethyl-cyclohex-1-enyl)-4-[4-hydroxy-1-(2,2,2-trifluoro-ethyl)-piperidin-4-yl]-phenyl}-amide] | 6.5 | 40 | – |
| CC1(C)CC=C(c2cc(C3(O)CC(C)(C)N(CC(F)(F)F)C(C)(C)C3)ccc2NC(=O)c2nc(C#N)c[nH]2)CC1 [Example 91, 4-Cyano-1H-imidazole-2-carboxylic acid {2-(4,4-dimethyl-cyclohex-1-enyl)-4-[4-hydroxy-2,2,6,6-tetramethyl-1-(2,2,2-trifluoro-ethyl)-piperidin-4-yl]-phenyl}-amide] | ~210 | 61 | – |
